Assay results taken from the supplement of paper PMC6045584.
± gives the standard deviation of the averaged measurements.

The test systems below were run with CS(=O)(=O)CCNCc1ccc(-c2ccc3ncnc(Nc4ccc(OCc5cccc(F)c5)c(Cl)c4)c3c2)o1 [LAPATINIB] (assay: surviving fraction relative to DMSO-only wells; higher = less growth inhibition). Details: 10 nM; exposure time: 5 days.
Summary of the method: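 For each tumour cell line, log-phase cells were put into 384-well plates at 250–500 cells per well, then after 24 hours exposed continuously for five days to inhibitors at 0.5, 1, 5, 10, 50, 100, 500 and 1000 nM. Viability was assessed by CellTiter-Glo luminescence, with surviving fraction expressed relative to the median of DMSO-only wells. Lines were screened three times and retained only if replicate Pearson r exceeded 0.7 and median Z' exceeded 0.3.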

Test System | surviving fraction
NY BONE | 1.1 ± 0.05
NOS1 BONE | 1.12 ± 0.033

Same assay, conditions: 50 nM; exposure time: 5 days

Test System | surviving fraction
SCC36 HEADNECK | 0.918 ± 0.049
OS25HAL BONE | 1.05 ± 0.029
HCC1806 BREAST | 0.992 ± 0.018
HU09 BONE | 1 ± 0.056
SG43 HEADNECK | 0.711 ± 0.23
U2OS BONE | 1.03 ± 0.012
HOSMNG BONE | 0.848 ± 0.064
CASKI CERVIX | 0.775 ± 0.044
SUM44 BREAST | 1.04 ± 0.045
MDAMB231 BREAST | 0.96 ± 0.019
CAL51 BREAST | 0.994 ± 0.042
MDAMB436 BREAST | 1.02 ± 0.072
HSSYII SYNOVIAL | 0.947 ± 0.064
RDES SOFT TISSUE | 1.09 ± 0.053
MDAMB157 BREAST | 1.01 ± 0.064
CHLA90 AUTONOMIC GANGLIA | 0.965 ± 0.06
CADOES1 SOFT TISSUE | 0.958 ± 0.096
SG31 HEADNECK | 0.699 ± 0.084
SCC47 HEADNECK | 1.05 ± 0.044
S68 BREAST | 1.07 ± 0.08

Test System | surviving fraction
SNU475 LIVER | 0.953 ± 0.042
22RV1 PROSTATE | 1.04 ± 0.034
SCC003 HEADNECK | 0.963 ± 0.011
JURKAT HAEMATOPOIETIC AND LYMPHOID TISSUE | 0.933 ± 0.055
HT1080 SOFT TISSUE | 1.04 ± 0.016
CAL120 BREAST | 1.04 ± 0.042
MCF7 BREAST | 0.961 ± 0.057
MFM223 BREAST | 1.058 ± 0.01
LNCAP PROSTATE | 0.937 ± 0.061
PCI30 HEADNECK | 1.14 ± 0.063
OSHN BONE | 1.05 ± 0.02
SG28 HEADNECK | 0.764 ± 0.043
HOS BONE | 1.05 ± 0.023
HUO3N1 BONE | 1.02 ± 0.037
BT20 BREAST | 1.14 ± 0.048
SJSA1 BONE | 1.62 ± 0.095
JIMT1 BREAST | 1 ± 0.035
HCC78 LUNG | 0.82 ± 0.075
NY BONE | 1 ± 0.028
NOS1 BONE | 1.13 ± 0.068

Same assay, conditions: 100 nM; exposure time: 5 days

Test System | surviving fraction
SCC36 HEADNECK | 0.883 ± 0.067
OS25HAL BONE | 1.04 ± 0.0055
HCC1806 BREAST | 1.11 ± 0.033
HU09 BONE | 1.04 ± 0.13
SG43 HEADNECK | 0.494 ± 0.12
U2OS BONE | 1.04 ± 0.024
HOSMNG BONE | 0.867 ± 0.11
CASKI CERVIX | 0.685 ± 0.021
SUM44 BREAST | 1.21 ± 0.17
MDAMB231 BREAST | 1.02 ± 0.012
CAL51 BREAST | 1.08 ± 0.032
MDAMB436 BREAST | 1.03 ± 0.12
HSSYII SYNOVIAL | 1.04 ± 0.087
RDES SOFT TISSUE | 1.19 ± 0.11
MDAMB157 BREAST | 1.008 ± 0.0098
CHLA90 AUTONOMIC GANGLIA | 0.981 ± 0.11
CADOES1 SOFT TISSUE | 1.09 ± 0.097
SG31 HEADNECK | 1.02 ± 0.27
SCC47 HEADNECK | 1.05 ± 0.072
S68 BREAST | 1.1 ± 0.33
SNU475 LIVER | 1 ± 0.041

Test System | surviving fraction
22RV1 PROSTATE | 1.07 ± 0.085
SG32 HEADNECK | 1.67 ± 0.82
SCC003 HEADNECK | 0.964 ± 0.054
JURKAT HAEMATOPOIETIC AND LYMPHOID TISSUE | 0.947 ± 0.025
HT1080 SOFT TISSUE | 1.02 ± 0.048
CAL120 BREAST | 1.03 ± 0.075
MCF7 BREAST | 0.946 ± 0.096
MFM223 BREAST | 1.2 ± 0.034
LNCAP PROSTATE | 0.891 ± 0.038
PCI30 HEADNECK | 1.18 ± 0.062
OSHN BONE | 1.08 ± 0.015
SG28 HEADNECK | 0.775 ± 0.079
HOS BONE | 1.05 ± 0.034
HUO3N1 BONE | 1.06 ± 0.043
BT20 BREAST | 1.18 ± 0.054
SJSA1 BONE | 1.47 ± 0.077
JIMT1 BREAST | 1.01 ± 0.066
HCC78 LUNG | 0.944 ± 0.1
NY BONE | 1.1 ± 0.046
NOS1 BONE | 1.08 ± 0.13

Same assay, conditions: 500 nM; exposure time: 5 days

Test System | surviving fraction
SCC36 HEADNECK | 0.543 ± 0.051
OS25HAL BONE | 1.09 ± 0.044
HCC1806 BREAST | 0.715 ± 0.025
HU09 BONE | 0.891 ± 0.043
SG43 HEADNECK | 0.304 ± 0.011
U2OS BONE | 0.9533 ± 0.0085
HOSMNG BONE | 0.89 ± 0.084
CASKI CERVIX | 0.426 ± 0.013
SUM44 BREAST | 1.08 ± 0.07
MDAMB231 BREAST | 1.013 ± 0.0062
CAL51 BREAST | 1.02 ± 0.089
MDAMB436 BREAST | 1.05 ± 0.23
HSSYII SYNOVIAL | 0.969 ± 0.034
RDES SOFT TISSUE | 1.41 ± 0.18
MDAMB157 BREAST | 0.951 ± 0.082
CHLA90 AUTONOMIC GANGLIA | 0.931 ± 0.073
CADOES1 SOFT TISSUE | 1.13 ± 0.052
SG31 HEADNECK | 0.775 ± 0.23
SCC47 HEADNECK | 0.82 ± 0.041
S68 BREAST | 0.71 ± 0.058
SNU475 LIVER | 0.987 ± 0.047

Test System | surviving fraction
22RV1 PROSTATE | 1.08 ± 0.12
SG32 HEADNECK | 0.905 ± 0.23
SCC003 HEADNECK | 0.757 ± 0.015
JURKAT HAEMATOPOIETIC AND LYMPHOID TISSUE | 1.01 ± 0.012
HT1080 SOFT TISSUE | 1.01 ± 0.021
CAL120 BREAST | 0.998 ± 0.052
MCF7 BREAST | 0.946 ± 0.061
MFM223 BREAST | 1.02 ± 0.084
LNCAP PROSTATE | 0.995 ± 0.035
PCI30 HEADNECK | 1.01 ± 0.069
OSHN BONE | 1.067 ± 0.0071
SG28 HEADNECK | 0.599 ± 0.057
HOS BONE | 1.039 ± 0.0051
HUO3N1 BONE | 0.876 ± 0.15
BT20 BREAST | 1.16 ± 0.045
SJSA1 BONE | 1.42 ± 0.022
JIMT1 BREAST | 0.907 ± 0.065
HCC78 LUNG | 0.857 ± 0.12
NY BONE | 0.9837 ± 0.0064
NOS1 BONE | 1.03 ± 0.093

Same assay, conditions: 1000 nM; exposure time: 5 days

Test System | surviving fraction
SCC36 HEADNECK | 0.394 ± 0.043
OS25HAL BONE | 1.1 ± 0.053
HCC1806 BREAST | 0.65 ± 0.082
HU09 BONE | 0.798 ± 0.021
SG43 HEADNECK | 0.314 ± 0.13
U2OS BONE | 0.938 ± 0.037
HOSMNG BONE | 1.06 ± 0.08
CASKI CERVIX | 0.321 ± 0.013
SUM44 BREAST | 1.24 ± 0.18
MDAMB231 BREAST | 1.01 ± 0.021
CAL51 BREAST | 0.989 ± 0.03
MDAMB436 BREAST | 1.04 ± 0.083
HSSYII SYNOVIAL | 0.927 ± 0.01
RDES SOFT TISSUE | 1.55 ± 0.19
MDAMB157 BREAST | 0.931 ± 0.041
CHLA90 AUTONOMIC GANGLIA | 0.875 ± 0.11
CADOES1 SOFT TISSUE | 1.13 ± 0.094
SG31 HEADNECK | 0.846 ± 0.21
SCC47 HEADNECK | 0.705 ± 0.053
S68 BREAST | 0.769 ± 0.032

Test System | surviving fraction
SNU475 LIVER | 0.954 ± 0.04
22RV1 PROSTATE | 1.11 ± 0.059
SG32 HEADNECK | 0.801 ± 0.18
SCC003 HEADNECK | 0.64 ± 0.069
JURKAT HAEMATOPOIETIC AND LYMPHOID TISSUE | 1.011 ± 0.0081
HT1080 SOFT TISSUE | 1.05 ± 0.076
CAL120 BREAST | 0.994 ± 0.045
MCF7 BREAST | 0.916 ± 0.023
LNCAP PROSTATE | 0.951 ± 0.21
PCI30 HEADNECK | 0.989 ± 0.071
OSHN BONE | 1.1 ± 0.015
SG28 HEADNECK | 0.563 ± 0.021
HOS BONE | 1.04 ± 0.018
HUO3N1 BONE | 1 ± 0.065
BT20 BREAST | 1.38 ± 0.068
SJSA1 BONE | 1.75 ± 0.037
JIMT1 BREAST | 0.783 ± 0.019
HCC78 LUNG | 0.872 ± 0.12
NY BONE | 1.04 ± 0.027
NOS1 BONE | 0.898 ± 0.029
